Results published in patent US6620828B2, “Thiazole compounds and pharmaceutical compositions for inhibiting protein kinases and methods for their use” (Agouron Pharmaceuticals, Inc., priority 1999, dated 2003).

Tested on: human umbilical vein endothelial cells (HUVEC)
Assay: HUVEC proliferation assay
Format: cell-based
Conditions: Homo sapiens, HUVEC, crude combinatorial amide library; for inhibition at 0.001 µM / inhibition at 0.01 µM: Table II screening results; for inhibition at 0.001 µM: 1 nM; for inhibition at 0.01 µM: 10 nM, read-out: % inhibition @ 10 nM
Procedure, shortened: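 Readout was MTT dye reduction (A595) after 72 h of stimulation with VEGF at 6 ng/ml final. Compound, in 0.1% DMSO final, was added 1 h before VEGF to HUVEC starved 24 h in 1% FBS. % inhibition was scaled between VEGF-alone and unstimulated wells; IC50 was fitted from triplicate dose curves.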

SMILES	inhibition at 0.15 µM (Table I screening results, 150 nM) [%]	inhibition at 0.001 µM [%]	inhibition at 0.01 µM [%]
COc1cc(Nc2nc(N)c(-c3nc(-c4cccc(NC(=O)c5cc(C(C)(C)C)cc(C(C)(C)C)c5)c4)cs3)s2)cc(OC)c1OC	-12	–	–
CNC(=O)Nc1nc(N)c(-c2nc(-c3cccc(NC(=O)c4ccccc4)c3)cs2)s1	–	-8	-40
CNC(=O)Nc1nc(N)c(-c2nc(-c3cccc(NC(=O)CC4CC5CCC4C5)c3)cs2)s1 (stereo not shown)	–	0	93
CNC(=O)Nc1nc(N)c(-c2nc(-c3cccc(NC(=O)CCN4CCCCC4)c3)cs2)s1	–	1	-26
CNC(=O)Nc1nc(N)c(-c2nc(-c3cccc(NC(=O)C(C)C)c3)cs2)s1	–	10	-45
CNC(=O)Nc1nc(N)c(-c2nc(-c3cccc(NC(=O)C(O)CC(C)C)c3)cs2)s1 (stereo not shown)	–	-18	2
CNC(=O)Nc1nc(N)c(-c2nc(-c3cccc(NC(=O)c4ccc(=O)oc4)c3)cs2)s1	–	-4	30
CNC(=O)Nc1nc(N)c(-c2nc(-c3cccc(NC(=O)c4cccc5[nH]ccc45)c3)cs2)s1	–	-3	2
CNC(=O)Nc1nc(N)c(-c2nc(-c3cccc(NC(=O)CCCN(C)C)c3)cs2)s1	–	-12	-40
C=CCC(=O)Nc1cccc(-c2csc(-c3sc(NC(=O)NC)nc3N)n2)c1	–	8	-13
CNC(=O)Nc1nc(N)c(-c2nc(-c3cccc(NC(=O)C4CCN(C(C)=O)CC4)c3)cs2)s1	–	23	-15
CNC(=O)Nc1nc(N)c(-c2nc(-c3cccc(NC(=O)C4CCOC4)c3)cs2)s1 (stereo not shown)	–	-5	-8
CNC(=O)Nc1nc(N)c(-c2nc(-c3cccc(NC(=O)/C=C/c4cccc(OC)c4)c3)cs2)s1	–	-1	-12
CNC(=O)Nc1nc(N)c(-c2nc(-c3cccc(NC(=O)C(O)c4ccccc4)c3)cs2)s1 (stereo not shown)	–	-14	-11
CNC(=O)Nc1nc(N)c(-c2nc(-c3cccc(NC(=O)C(=O)Cc4ccccc4)c3)cs2)s1	–	8	25
CNC(=O)Nc1nc(N)c(-c2nc(-c3cccc(NC(=O)C4C(C=C(C)C)C4(C)C)c3)cs2)s1 (stereo not shown)	–	-17	12
CNC(=O)Nc1nc(N)c(-c2nc(-c3cccc(NC(=O)[C@@]45C[C@@H]6C[C@@H]4CC6(C)C5)c3)cs2)s1	–	-20	2
CNC(=O)Nc1nc(N)c(-c2nc(-c3cccc(NC(=O)Cc4cccnc4)c3)cs2)s1	–	-7	-27
CNC(=O)Nc1nc(N)c(-c2nc(-c3cccc(NC(=O)Cc4cc(F)ccc4F)c3)cs2)s1	–	-1	4
CNC(=O)Nc1nc(N)c(-c2nc(-c3cccc(NC(=O)Cc4cc(F)cc(F)c4)c3)cs2)s1	–	-5	-10
CNC(=O)Nc1nc(N)c(-c2nc(-c3cccc(NC(=O)Cc4cccc(OC)c4)c3)cs2)s1	–	25	-31

SMILES	inhibition at 0.15 µM (Table I screening results, 150 nM) [%]	inhibition at 0.001 µM [%]	inhibition at 0.01 µM [%]
CNC(=O)Nc1nc(N)c(-c2nc(-c3cccc(NC(=O)C4C[C@H]5C=C[C@@H]4C5)c3)cs2)s1 (stereo partly shown)	–	4	-18
CNC(=O)Nc1nc(N)c(-c2nc(-c3cccc(NC(=O)CCc4ccc(C)cc4)c3)cs2)s1	–	2	–
CNC(=O)Nc1nc(N)c(-c2nc(-c3cccc(NC(=O)c4cc(C)on4)c3)cs2)s1	–	14	10
CNC(=O)Nc1nc(N)c(-c2nc(-c3cccc(NC(=O)C(=O)CC(C)C)c3)cs2)s1	–	3	11
CNC(=O)Nc1nc(N)c(-c2nc(-c3cccc(NC(=O)C4CCCC(OC)C4)c3)cs2)s1 (stereo not shown)	–	6	5
CNC(=O)Nc1nc(N)c(-c2nc(-c3cccc(NC(=O)C4(c5ccc(C)cc5)CC4)c3)cs2)s1	–	-8	-6
CNC(=O)Nc1nc(N)c(-c2nc(-c3cccc(NC(=O)CCC(=O)N4CCCC4)c3)cs2)s1	–	6	-10
CCc1ccccc1C(=O)Nc1cccc(-c2csc(-c3sc(NC(=O)NC)nc3N)n2)c1	–	0	106
CNC(=O)Nc1nc(N)c(-c2nc(-c3cccc(NC(=O)Cn4ccc5ccccc54)c3)cs2)s1	–	4	-15
CNC(=O)Nc1nc(N)c(-c2nc(-c3cccc(NC(=O)C4=CCCN(C)C4)c3)cs2)s1	–	2	43
CNC(=O)Nc1nc(N)c(-c2nc(-c3cccc(NC(=O)C4CCCN4C(C)=O)c3)cs2)s1 (stereo not shown)	–	3	27
CNC(=O)Nc1nc(N)c(-c2nc(-c3cccc(NC(=O)/C=C/C4C[C@H]5C=C[C@@H]4C5)c3)cs2)s1 (stereo partly shown)	–	11	50
CCC(C(=O)Nc1cccc(-c2csc(-c3sc(NC(=O)NC)nc3N)n2)c1)c1ccccc1C (stereo not shown)	–	-8	9
CNC(=O)Nc1nc(N)c(-c2nc(-c3cccc(NC(=O)c4ccc(C(C)(C)C)o4)c3)cs2)s1	–	2	69
CNC(=O)Nc1nc(N)c(-c2nc(-c3cccc(NC(=O)/C=C(\C)c4ccccc4C)c3)cs2)s1	–	-2	20
CNC(=O)Nc1nc(N)c(-c2nc(-c3cccc(NC(=O)c4ccc(C(C)=O)s4)c3)cs2)s1	–	49	97
CNC(=O)Nc1nc(N)c(-c2nc(-c3cccc(NC(=O)C(C)ON=C(C)C)c3)cs2)s1 (stereo not shown)	–	6	-7
CNC(=O)Nc1nc(N)c(-c2nc(-c3cccc(NC(=O)/C=C/C(=O)NCC4CC4)c3)cs2)s1	–	10	1
CNC(=O)Nc1nc(N)c(-c2nc(-c3cccc(NC(=O)c4cc(OC)ccc4C#N)c3)cs2)s1	–	-18	-1
CNC(=O)Nc1nc(N)c(-c2nc(-c3cccc(NC(=O)c4cc(C)cc(=O)o4)c3)cs2)s1	–	5	62
CNC(=O)Nc1nc(N)c(-c2nc(-c3cccc(NC(=O)Cc4cn(C)cn4)c3)cs2)s1	–	34	42

SMILES	inhibition at 0.15 µM (Table I screening results, 150 nM) [%]	inhibition at 0.001 µM [%]	inhibition at 0.01 µM [%]
CNC(=O)Nc1nc(N)c(-c2nc(-c3cccc(NC(=O)CC(C)(C)NC(C)=O)c3)cs2)s1	–	4	-11
CCO/C(C)=C/C(=O)Nc1cccc(-c2csc(-c3sc(NC(=O)NC)nc3N)n2)c1	–	7	47
CNC(=O)Nc1nc(N)c(-c2nc(-c3cccc(NC(=O)[C@@H]4C[C@H](C)[C@H](C)[C@@H]4C)c3)cs2)s1	–	-11	-21
C/C=C/C(=O)Nc1cccc(-c2csc(-c3sc(NC(=O)NC)nc3N)n2)c1	–	-1	-7
CNC(=O)Nc1nc(N)c(-c2nc(-c3cccc(NC(=O)CC4=CCCCC4)c3)cs2)s1	–	29	82
CNC(=O)Nc1nc(N)c(-c2nc(-c3cccc(NC(=O)C(=O)C4=CCCCC4)c3)cs2)s1	–	17	19
CNC(=O)Nc1nc(N)c(-c2nc(-c3cccc(NC(=O)C4CNC(=O)N4)c3)cs2)s1 (stereo not shown)	–	11	18
CNC(=O)Nc1nc(N)c(-c2nc(-c3cccc(NC(=O)C4CC4C)c3)cs2)s1 (stereo not shown)	–	-12	0
CNC(=O)Nc1nc(N)c(-c2nc(-c3cccc(NC(=O)c4cc(F)ccc4C)c3)cs2)s1	–	-1	78
CNC(=O)Nc1nc(N)c(-c2nc(-c3cccc(NC(=O)C4CCSCN4C)c3)cs2)s1 (stereo not shown)	–	1	62
CNC(=O)Nc1nc(N)c(-c2nc(-c3cccc(NC(=O)[C@@H]4CCC[C@@H]4O)c3)cs2)s1	–	15	13
CNC(=O)Nc1nc(N)c(-c2nc(-c3cccc(NC(=O)C4CCC(=O)CC4)c3)cs2)s1	–	-2	12
CNC(=O)Nc1nc(N)c(-c2nc(-c3cccc(NC(=O)c4ccccc4C(C)C)c3)cs2)s1	–	-9	26
CNC(=O)Nc1nc(N)c(-c2nc(-c3cccc(NC(=O)[C@@H](O)C(C)C)c3)cs2)s1	–	16	4
CCn1nc(C)cc1C(=O)Nc1cccc(-c2csc(-c3sc(NC(=O)NC)nc3N)n2)c1	–	17	41
CNC(=O)Nc1nc(N)c(-c2nc(-c3cccc(NC(=O)C4CC(=O)N(C)C4)c3)cs2)s1 (stereo not shown)	–	21	-4
CNC(=O)Nc1nc(N)c(-c2nc(-c3cccc(NC(=O)/C=C/c4ccccc4OC)c3)cs2)s1	–	-34	46
CNC(=O)Nc1nc(N)c(-c2nc(-c3cccc(NC(=O)C4CC5C=CCC(C5)C4)c3)cs2)s1 (stereo not shown)	–	1	55
CNC(=O)Nc1nc(N)c(-c2nc(-c3cccc(NC(=O)C4CC5C=CC4CC5)c3)cs2)s1 (stereo not shown)	–	54	45
CNC(=O)Nc1nc(N)c(-c2nc(-c3cccc(NC(=O)C4CC5CC(O)C4C5)c3)cs2)s1 (stereo not shown)	–	20	19
CNC(=O)Nc1nc(N)c(-c2nc(-c3cccc(NC(=O)C4C[C@@H]5C[C@H]4CCC5O)c3)cs2)s1 (stereo partly shown)	–	14	21
